Measurements: patent publication US20260001875A1, “AMINOPYRIMIDINYL DERIVATIVES FOR THE TREATMENT OF PARKINSON'S DISEASE” (UNIVERSITY OF DUNDEE, priority 2022, published 2026)
“Also recorded” adds a separate entry of the source. Read-outs that look alike come from different tables or passages of the source.

Key:
VHL = VHL (Homo sapiens, UniProt P40337); assay: Fluorescence polarization competitive binding assay; conditions: for Ki: displacement of FAM-labelled HIF-1α peptide from VCB
Experimental: FP competitive binding assays were performed following the method described previously (Bond et al, J. Med. Chem. 2021, 64 (20), 15477-15502.). All the measurements were taken on a PHERstar (BMG LABTECH) plate reader installed with a FP filter that sets excitation and emission wavelengths at 485 nm and 520 nM separately. Each well of 384-well plate (Coring 3575) contains 10 nM VCB protein, 5 nM FAM-lableled HIF-1α peptide (FAM-DEALAHyp[…], “JC9”), and decreasing concentrations of PROTACs (14 concentrations with 2-fold serial dilution starting from 250 μM) in FP assay buffer (100 mM Bis-Tris propane, 100 mM NaCl, 1 mM TCEP, pH 7) with a final DMSO concentration of 5%. The control wells containing the VCB and JC9 with no compound are set as the maximum signals (zero displacement). And the control wells containing JC9 in the absence of protein are set as the minimum signals. Control values were used to obtain the percentage of displacement which was graphed against Log [Compound]. Average IC50 values were determined for each titration using nonlinear regression analysis with Prism (v.9.3.1).

LRRK2^WT [1] = molecular target: T1, LRRK2^WT (Mus musculus, UniProt Q5S006); assay: Western blot LRRK2 degradation in WT MEFs; type: cell-based; conditions: for Dmax on WT MEFs / DC50 / Dmax: dose response; for Dmax: read-out: Dmax on WT MEFs
T1 construct: endogenous in cells; host or cells: primary wild-type mouse embryonic fibroblasts (MEFs)

LRRK2^WT [2] = assay: Western blot LRRK2 degradation in WT MEFs; type: cell-based, mouse; conditions: for LRRK2 degradation (in words): WT MEFs and LRRK2^G2019S MEFs
Rab10 pThr73 [3] = assay: Rab10 Thr73 dephosphorylation (immunoblot) in WT MEFs; type: cell-based, mouse; conditions: for inhibition at 0.033 µM / inhibition at 1 µM: read-out: pRab10 inhibited in WT MEFs; for EC50: dose response, read-out: WT MEFs pRab10-dephosphrylation EC50
Procedure, shortened: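 Wild-type mouse embryonic fibroblasts in 6-well plates were treated with LRRK2 PROTACs, with two biological replicates per condition. Cells were washed in PBS and lysed on ice in buffer containing phosphatase and protease inhibitors plus 1% Triton X-100, then clarified at 15,000 g. Rab10 Thr73 phosphorylation was measured by quantitative immunoblotting of 15 to 20 μg protein on 4-12% Bis-Tris gels.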

LRRK2 pSer935 = assay: LRRK2 Ser935 dephosphorylation (immunoblot) in LRRK2^G2019S MEFs; type: cell-based, mouse; conditions: for EC50: Mus musculus, dose response; for T1/2 GS-pSer935-LRRK2: LRRK2^G2019S MEFs
Experimental: Western blot degradation assays for the LRRK2 protacs were performed with WT and PD-associated LRRK2 [G2019S] mouse embryonic fibroblasts (MEFs). The second-generation PROTACs were tested in parallel with the first generation PROTACs SD75, SD82, and SD100. The compounds were tested at 33 nM or […] concentrations for 4 hours or 24 hours, running two biological replicates per condition and achieving quantifications representative of both replicates. Analysis by quantitative immunoblotting was performed with readouts of the total LRRK2 (antibody recognizes epitope in C-terminus of protein), Rab10 pThr73 (physiological substrate) and LRRK2 pSer935 (biomarker phosphorylation site).
Primary MEFs were generated as described in a previous study (Wiggin et al., Mol. Cell Biol. 2002 April; 22(8):2871-81.). Briefly, the uterine horn was collected from adult female mice at day E12.5 and transferred to a 10 cm tissue culture dish containing cold PBS. Two forceps were used to tear the yolk sacs to isolate each embryo. Forceps were cleaned thoroughly with 70% ethanol between each embryo isolation. The embryos were culled, and a tissue piece was collected in a PCR tube for genotyping. The red tissue of the embryo, which grows to become the heart and liver, was removed. The remainder of the embryo was minced with a scalpel blade and incubated with 7.5 ml trypsin-EDTA solution for 10 minutes in a 37° C. tissue culture CO2 incubator. The dish was removed from the incubator and checked under a light microscope for single cells. 7.5 ml complete media was added to the trypsinised cells, and the cell suspension was transferred to a 15 ml Falcon tube, centrifuged at 1200 rpm for 5 minutes at room temperature. The trypsin was aspirated, the cell pellet was resuspended in 5 ml fresh complete media, and the cell suspension was plated in a 60 mm tissue culture dish and incubated in a 37° C., 5% CO2 tissue culture incubator. The MEFs at this stage were considered as passage 0 and were passaged and expanded for experimental use once the genotype was confirmed by allelic sequencing and immunoblotting. MEFs were cultured in Dulbecco's modified Eagle medium (DMEM) containing 10% (v/v) fetal bovine serum (FBS), 2 mM L-glutamine, 100 U/ml penicillin, and 100 μg/ml streptomycin supplemented with 1× non-essential amino acids and 1 mM sodium pyruvate.
Culturing and passaging of adherent cell lines were carried out using aseptic technique in CL1 or CL2 (for PBMC isolation) biological safety cabinets. All cells were incubated in a 37° C. incubator with 5% CO2. Cell lines were regularly tested for mycoplasma contamination. For western blot assay, the cells were seeded in 6-well plates. After treating with testing compounds at indicated concentrations and time period, the media was removed and the cells were washed with PBS and lysed in 100 μl ice-cold complete lysis buffer containing 50 mM Tris-HCl pH 7.4, 1 mM EGTA, 10 mM 2-glycerophosphate, 50 mM sodium fluoride, 5 mM sodium pyrophosphate, 270 mM sucrose, supplemented with 1 μg/ml microcystin-LR, 1 mM sodium orthovanadate, complete EDTA-free protease inhibitor cocktail (Roche) and 1% (v/v) Triton X-100. The cells were immediately placed on ice and were scraped and collected into 1.5 ml Eppendorf tubes. Cell lysates were incubated on ice for 10 minutes prior to centrifugation at 15,000 g at 4° C. for 15 minutes. The cell pellet was discarded, and supernatant was collected for analysis by quantitative immunoblotting. For long term storage, the supernatant was flash frozen and stored at −80° C. Protein concentrations of cell lysates were determined using the Bradford assay.
Cell lysates containing a quarter of a volume of 4× NuPAGE LDS sample buffer (NP0007) supplemented with 5% β-mercaptoethanol, were heated at 95° C. for 5 minutes. […]

LRRK2^G2019S = molecular target: T2, LRRK2^G2019S (Mus musculus, UniProt Q5S006, G2019S); assay: Western blot LRRK2 degradation in LRRK2^G2019S MEFs; type: cell-based
T2 construct: endogenous in cells; host or cells: LRRK2[G2019S] mouse embryonic fibroblasts (MEFs)

Rab10 pThr73 [4] = assay: Rab10 Thr73 dephosphorylation (immunoblot) in LRRK2^G2019S MEFs; type: cell-based, mouse; conditions: for inhibition at 1 µM: read-out: pRab10 inhibited in LRRK2^G2019S MEFs; for EC50: dose response, read-out: G2019S MEFs-pRab10-dephosphorylation EC50
[5] = time course at 1000 nM, WT MEFs
[6] = Mus musculus, 33 nM/4 h treatment
[7] = Mus musculus, 1 μM/4 h treatment
[8] = Mus musculus, 1 μM/24 h treatment
[9] = Mus musculus, 33 nM/24 h treatment
[10] = Mus musculus, time course at 300 nM, WT MEFs
[11] = time course at 300 nM, LRRK2^G2019S MEFs

Row | SMILES | Ki (VHL) [nM] | LRRK2 degradation (in words) (LRRK2^WT [2]) | inhibition at 0.033 µM (Rab10 pThr73 [3]; [6]) [%] | inhibition at 1 µM (Rab10 pThr73 [3]; [7]) [%] | inhibition at 1 µM (Rab10 pThr73 [3]; [8]) [%] | inhibition at 1 µM (Rab10 pThr73 [4]; [7]) [%] | DC50 (LRRK2^WT [1]; 4 h treatment) [nM] | Dmax on WT MEFs (LRRK2^WT [1]; 4 h treatment) | Dmax (LRRK2^WT [1]; 4 h treatment) [%] | T1/2 of LRRK2^WT degradation (LRRK2^WT [1]; time course at 300 nM, WT MEFs) [h] | inhibition at 0.033 µM (Rab10 pThr73 [3]; [9]) [%] | Dmax at 0.3 µM (Rab10 pThr73 [3]; [10]) [%] | EC50 (LRRK2 pSer935; 4 h treatment) [nM] | T1/2 GS-pSer935-LRRK2 (LRRK2 pSer935; time course at 300 nM) [h] | T1/2 of LRRK2^G2019S degradation (LRRK2^G2019S; time course at 300 nM) [h] | EC50 (Rab10 pThr73 [4]; Mus musculus, 4 h treatment) [nM] | T1/2 of Rab10 dephosphorylation (G2019S) (Rab10 pThr73 [4]; [11]) [h] | further results
1 | CNc1nc(Nc2ccc(C(=O)N3CCN(C[C@H]4CC[C@H](CSC(C)(C)[C@H](NC(=O)C5(F)CC5)C(=O)N5C[C@@H](O)CC5C(=O)NCc5ccc(-c6scnc6C)cc5)CC4)CC3)cc2OC)ncc1Cl (stereo partly drawn) [Cis-XL01126, (2S,4S)-1-((R)-3-((((1r,4R)-4-((4-(4-((5-chloro-4-(methylamino)pyrimidin-2-yl)amino)-3-methoxybenzoyl)piperazin-1-yl)methyl)cyclohexyl)methyl)thio)-2-(1-fluorocyclopropane-1-carboxamido)-3-methylbutanoyl)-4-hydroxy-N-(4-(4-methylthiazol-5-yl)benzyl)pyrrolidine-2-carboxamide] | > 50000 | – | – | – | – | – | – | – | – | – | – | – | – | – | – | – | – | binding to VHL (in words) (VHL; fluorescence polarization): does not bind to VHL E3 ligase; also recorded: did not displace the fluorescent tracer
2 | CNc1nc(Nc2ccc(C(=O)N3CCN(CCOCCOCCSC(C)(C)[C@H](NC(=O)C4(F)CC4)C(=O)N4C[C@H](O)C[C@H]4C(=O)NCc4ccc(-c5scnc5C)cc4)CC3)cc2OC)ncc1Cl [SD75, (2S,4R)-1-((R)-3-((2-(2-(2-(4-(4-((5-chloro-4-(methylamino)pyrimidin-2-yl)amino)-3-methoxybenzoyl)piperazin-1-yl)ethoxy)ethoxy)ethyl)thio)-2-(1-fluorocyclopropane-1-carboxamido)-3-methylbutanoyl)-4-hydroxy-N-(4-(4-methylthiazol-5-yl)benzyl)pyrrolidine-2-carboxamide] | 820 | moderate LRRK2 degradation; also recorded: partial LRRK2 degradation | 0 to 25 | 18 to 90 | 30 to 90 | 30 to 95 | – | – | – | – | – | – | – | – | – | – | – | Dmax on WT MEFs (LRRK2^WT [1]; 24 h treatment): 50%; T1/2 of LRRK2^WT degradation (LRRK2^WT [1]; [5]): 5.1 h; Selectivity Index (pRab10 dephosphorylation, WT vs G2019S MEFs) (Rab10 pThr73 [3]; 24 h): 6.0; Dmax at 1 µM (Rab10 pThr73 [3]; Mus musculus, time course at 1000 nM, WT MEFs): 41%; EC50 (Rab10 pThr73 [3]; 24 h treatment): 2270 nM; T1/2 of Rab10 dephosphorylation (WT) (Rab10 pThr73 [3]; [5]): 6.7 h; EC50 (LRRK2 pSer935; 24 h treatment): 279 nM; T1/2 GS-pSer935-LRRK2 (LRRK2 pSer935; time course at 1000 nM): 1.4 h; T1/2 of LRRK2^G2019S degradation (LRRK2^G2019S; time course at 1000 nM): 1.1 h; Dmax at 1 µM (Rab10 pThr73 [4]; Mus musculus, time course at 1000 nM, LRRK2^G2019S MEFs): 74%; EC50 (Rab10 pThr73 [4]; 24 h treatment): 379 nM; T1/2 of Rab10 dephosphorylation (G2019S) (Rab10 pThr73 [4]; time course at 1000 nM, LRRK2^G2019S MEFs): 0.7 h
3 | CNc1nc(Nc2ccc(C(=O)N3CCN(C[C@H]4CC[C@H](CSC(C)(C)[C@H](NC(=O)C5(F)CC5)C(=O)N5C[C@H](O)CC5C(=O)NCc5ccc(-c6scnc6C)cc5)CC4)CC3)cc2OC)ncc1Cl (stereo partly drawn) [XL01126, (2S,4R)-1-((R)-3-((((1R,4R)-4-((4-(4-((5-chloro-4-(methylamino)pyrimidin-2-yl)amino)-3-methoxybenzoyl)piperazin-1-yl)methyl)cyclohexyl)methyl)thio)-2-(1-fluorocyclopropane-1-carboxamido)-3-methylbutanoyl)-4-hydroxy-N-(4-(4-methylthiazol-5-yl)benzyl)pyrrolidine-2-carboxamide] | 908 to 5950 | almost complete LRRK2 degradation | – | – | – | – | 32 | 80-90% | 82 | 1.2 | 0 to 60 | 84 | 9 | 0.3 | 0.6 | 15 | 0.3 | Dmax at 0.3 µM (LRRK2^WT [1]; time course at 300 nM, WT MEFs): 82%; mechanism of induced LRRK2 degradation (in words) (LRRK2^WT [2]; pretreatment with VH101, MLN4924, MG132, WT and LRRK2^G2019S MEFs): dependent on the proteasome pathway
4 | CNc1nc(Nc2ccc(C(=O)N3CCN(C[C@H]4CC[C@@H](CSC(C)(C)[C@H](NC(=O)C5(F)CC5)C(=O)N5C[C@H](O)CC5C(=O)NCc5ccc(-c6scnc6C)cc5)CC4)CC3)cc2OC)ncc1Cl (stereo partly drawn) [XL01134] | 160 | hook effect | 0 to 40 | 10 to 95 | 30 to 100 | 20 to 100 | 32 | 58% | 59 | 2.7 | 0 to 60 | 68 | 5 | 0.3 | 1.4 | 12 | 0.3 | EC50 (Rab10 pThr73 [3]; Mus musculus, 4 h treatment): 74 nM; T1/2 of Rab10 dephosphorylation (WT) (Rab10 pThr73 [3]; time course at 300 nM, WT MEFs): 2.1 h; Dmax at 0.3 µM (LRRK2^G2019S; time course at 300 nM): 82%; inhibition at 1 µM (Rab10 pThr73 [4]; [8]): 10 to 100%; Dmax at 0.3 µM (Rab10 pThr73 [4]; Mus musculus, time course at 300 nM, LRRK2^G2019S MEFs): 87%
